Data on three molecules can be found in PMC6431625 (Frontiers in Endocrinology, 2019).

For one assay, the target named is T1, AT1R-Venus (Homo sapiens, UniProt P30556).
T1 construct: SP (signal peptide) (N); expressed in transfected cells; host or cells: HEK 293
T1 sequence (P30556 1-359): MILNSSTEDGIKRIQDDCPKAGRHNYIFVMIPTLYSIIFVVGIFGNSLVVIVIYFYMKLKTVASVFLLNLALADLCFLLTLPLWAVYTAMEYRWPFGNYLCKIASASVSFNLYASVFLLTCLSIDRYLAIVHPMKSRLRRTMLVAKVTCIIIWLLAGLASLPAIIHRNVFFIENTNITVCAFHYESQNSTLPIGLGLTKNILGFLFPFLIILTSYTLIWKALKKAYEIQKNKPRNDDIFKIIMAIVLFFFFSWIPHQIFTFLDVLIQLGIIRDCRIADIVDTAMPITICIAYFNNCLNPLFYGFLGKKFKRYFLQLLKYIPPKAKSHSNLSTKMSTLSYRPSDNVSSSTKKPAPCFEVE
The class given is cell-based. The settings on record: ligand 1 μM.

The target in a further assay is T2, FP-Venus (Homo sapiens, UniProt P43088).
T2 construct: SP (signal peptide) (N); expressed in transfected cells; host or cells: HEK 293
T2 sequence (P43088 whole entry): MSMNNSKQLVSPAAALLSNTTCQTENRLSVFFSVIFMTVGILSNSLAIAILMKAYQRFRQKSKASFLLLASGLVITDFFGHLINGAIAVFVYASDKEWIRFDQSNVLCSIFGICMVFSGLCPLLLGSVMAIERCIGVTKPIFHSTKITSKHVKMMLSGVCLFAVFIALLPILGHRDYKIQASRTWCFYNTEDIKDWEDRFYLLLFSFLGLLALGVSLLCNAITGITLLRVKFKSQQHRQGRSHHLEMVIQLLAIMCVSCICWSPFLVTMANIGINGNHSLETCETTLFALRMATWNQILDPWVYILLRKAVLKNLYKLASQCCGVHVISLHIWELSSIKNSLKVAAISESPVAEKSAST
The class given is cell-based. Particulars: ligand 1 μM.

A further assay deals with T3, AT1R-WT/FP-Venus dimer (Homo sapiens, UniProt P30556+P43088).
T3 construct: SP (signal peptide) (N); expressed in transfected cells; host or cells: HEK 293
T3 sequence (P43088 whole entry, one chain of several): as the sequence (P43088 whole entry) above
Format: cell-based. Particulars: ligand 1 μM.

Another assay has as its target T4, AT1R[Δ325]-Venus (Homo sapiens, UniProt P30556+P43088).
T4 construct: SP (signal peptide) (N); expressed in transfected cells; host or cells: HEK 293
Format: cell-based. The settings on record: ligand 1 μM.

The test system of a further assay is OTR-Venus. Format: cell-based, human. The settings on record: ligand 1 μM.
The next assay deals with T5, AT1R-RlucII (Homo sapiens, UniProt P30556+P43088).
T5 construct: SP (signal peptide) (N); expressed in transfected cells; host or cells: HEK293
T5 sequence (P43088 whole entry, one chain of several): as the sequence (P43088 whole entry) above
As to the kind of experiment: Enhanced bystander BRET trafficking of AT1R-RlucII co-expressed with wildtype FP (Lyn-rGFP, rGFP-FYVE). The settings on record: ligand 1 μM; co-expressed WT FP; HEK293. The class given is cell-based. On the technique in general: BRET reads energy transfer from a luciferase to a nearby fluorophore.

The next assay has as its target T6, FP-RlucII (Homo sapiens, UniProt P43088).
T6 construct: SP (signal peptide) (N); expressed in transfected cells; host or cells: HEK293
As to the kind of experiment: Enhanced bystander BRET trafficking of FP-RlucII co-expressed with wildtype AT1R (Lyn-rGFP, rGFP-FYVE). The settings on record: co-expressed WT-AT1R; HEK293; PGF2α 1 μM; Ang II data not shown. The class given is cell-based.

Another assay deals with FP. Also noted: method as in PMID 10454504. The settings on record: cited from earlier work.
Assay [1] has as its target T7, SP-FLAG-hAT1R-KPVAT-Venus (human, UniProt P30556 1-359).
T7 construct: human angiotensin II type 1 receptor, wild type; amplified from pcDNA3/SP-FLAG-hAT1R-WT; A signal peptide (SP); BRET acceptor; also called AT1R-Venus; angiotensin II type 1 receptor; not shown: Venus (after the linker KPVAT), C-terminal, kept
T7 sequence (looked up): T1 sequence (P30556 1-359)
As to the kind of experiment: FRET or BRET; living HEK 293 cells, 37°C, Kreb's buffer pH 7.4, coelenterazine h; β-arrestin-RlucII donor, receptor-Venus acceptor expressed alone (no partner receptor); ligand-induced ΔBRET after Ang II (1 μM), followed 90 min. Particulars: partners not purified.

The target in assay [2] is T7, SP-FLAG-hAT1R-KPVAT-Venus. Kind of assay: FRET or BRET; living HEK 293 parental cells, 37°C, Kreb's buffer pH 7.4; β-arrestin-RlucII donor, receptor-Venus acceptor co-expressed with the untagged partner receptor (AT1R-Venus, AT1R[Δ325]-Venus or OTR-Venus with FP-WT; FP-Venus with AT1R-WT); ΔBRET after PGF2α (1 μM); also other FP ligands, AT1R antagonists and endocytosis inhibitors. Particulars: partners not purified.

A value given as a limit tells only on which side of the number the result lay.

T4 sequence (P43088 whole entry, stated change not applied, one chain of several): as the sequence (P43088 whole entry) above
T6 sequence (P43088 whole entry, one chain of several): as the sequence (P43088 whole entry) above

Take `CCCCC[C@H](O)/C=C/[C@@H]1[C@@H](C/C=C\CCCC(=O)O)[C@@H](O)C[C@H]1O` [PGF2α, prostaglandin F2α]: at AT1R-Venus, the “Ligand-induced recruitment of β-arrestin 1/2-RlucII to AT1R-Venus alone” value was “no responses were detected”. The “Ligand-induced recruitment of β-arrestin 1/2-RlucII to FP-Venus alone” value at FP-Venus is given as “did not induce recruitment”. Further, at AT1R-WT/FP-Venus dimer, the “Ligand-induced recruitment of β-arrestin 1/2-RlucII to the AT1R-WT/FP-Venus dimer” value is reported as “did not induce recruitment”. Moreover, the “Ligand-induced recruitment of β-arrestin 1/2-RlucII to AT1R[Δ325]-Venus in the context of the dimer” value on AT1R[Δ325]-Venus is reported as “No responses were detected”. Moreover, the “Ligand-induced recruitment of β-arrestin 1/2-RlucII to OTR-Venus in the context of the dimer” value in the assay on OTR-Venus is “No responses were detected”. Further, at AT1R-RlucII, the “Trafficking of AT1R-RlucII (membrane Lyn-rGFP and endosome rGFP-FYVE bystander BRET)” value was “time-dependent loss of the membrane signal and an increase in the endosomal population”. Also, the “Trafficking of FP-RlucII (membrane Lyn-rGFP and endosome rGFP-FYVE bystander BRET)” value at FP-RlucII is “loss of membrane-localized receptor and a transient increase in an early endosomal population”.
Regarding `O=C(O)CCC/C=C\C[C@@H]1[C@@H](/C=C/[C@H](O)C2Cc3ccccc3C2)[C@@H](F)C[C@@H]1O` [AL-8810], the “Agonist properties at FP” value in the assay with FP is on record as “partial agonist properties”.

B1: β-arrestin 1-RlucII (natural protein, UniProt P49407 1-418, looked up)
chain: MGDKGTRVFKKASPNGKLTVYLGKRDFVDHIDLVDPVDGVVLVDPEYLKERRVYVTLTCAFRYGREDLDVLGLTFRKDLFVANVQSFPPAPEDKKPLTRLQERLIKKLGEHAYPFTFEIPPNLPCSVTLQPGPEDTGKACGVDYEVKAFCAENLEEKIHKRNSVRLVIRKVQYAPERPGPQPTAETTRQFLMSDKPLHLEASLDKEIYYHGEPISVNVHVTNNTNKTVKKIKISVRQYADICLFNTAQYKCPVAMEEADDTVAPSSTFCKVYTLTPFLANNREKRGLALDGKLKHEDTNLASSTLLREGANREILGIIVSYKVKVKLVVSRGGLLGDLASSDVAVELPFTLMHPKPKEEPPHREVPENETPVDTNLIELDTNDDDIVFEDFARQRLKGMKDDKEEEEDGTGSPQLNNR
notes: β-arrestin 1; BRET donor; also called βarr1-RlucII
Take B1: the “t1/2 of ligand-induced recruitment (BRET)” value in assay [1] was under 2 min; in [2] it was 20 min.
